The values that follow come from patent US10328087B2, “Formulations for solubilizing hormones” (TherapeuticsMD, Inc., priority 2015, dated 2019).

Marks after values point to notes of the source that are not given here.

Data set [1] relates to ovariectomized female Crl:CD rats. Put plainly: Transdermal progesterone opposing estradiol effects on uterus and vagina in ovariectomized rats. Type of data set: in vivo, rat. The settings on record: for Endometrial Gland Density, LSMean / Endometrial Gland Size, LSMean / Endometrial Height, LSMean / Luminal Epithelial Cell Height, LSMean / Number of Mitotic Figures, LSMean: Day 8, EST 3 μg/kg SC alone, or with 10 mg/kg SC Prog, or with 3.125 mg/kg Dermal Prog. The procedure: Transdermally delivered progesterone blocked growth-related estrogenic effects on the endometrium and vagina in ovariectomized rats.
Thirty-two 8-week-old female Crl:CD® rats underwent ovariectomy 2 weeks prior to the start of the study. Rats were then randomly assigned to 4 groups of 8 rats each and dosed according to the schedule in Table 4. Control animals were dosed with saline or vehicle as noted. Two hours after the final dose on Day 8, the rats were humanely euthanized and the rats' vaginas and the distal portions of the rats' uterine horns were fixed and processed for histology and computer-aided morphometry.

Data set [2] in a line: Solubility of progesterone in solvent (concentration for clear solution). The data set is classed as physicochemical. An excerpt:
Without wishing to be bound by any particular theory, it is believed that the compositions and methods described herein address the problems associated with known steroid hormone formulations such as poor solubility, poor bioavailability, and poor stability. More specifically, it has now been discovered that terpenes are unexpectedly effective in enhancing the solubility of insoluble steroid hormones such as progesterone and likewise act as excellent penetration enhancers for these same compounds. […] The compositions can also have any combination of enhanced dissolution rates, penetration capabilities, absorption, and bioavailability.

Where [3] appears, read: estradiol-treated ovariectomized rats, progesterone SC or transdermally.

Regarding `C[C@]12CC[C@@H]3c4ccc(O)cc4CC[C@H]3[C@@H]1CC[C@@H]2O` [EST, (17β)-estra-1,3,5(10)-triene-3,17-diol], in data set [1] (ovariectomized rats), the “Endometrial Gland Density, LSMean” value was 7.09^b cells/mm^2; the “Endometrial Gland Size, LSMean” value was 4540^b μm^2; the “Endometrial Height, LSMean” value is 418^b μm; the “Luminal Epithelial Cell Height, LSMean” value is recorded as 47.8^b μm. For the same compound, the “Number of Mitotic Figures, LSMean” value in data set [1] (ovariectomized rats) was 921^b. For the same compound, the “effect on the uterus (organ weight measurements and histology)” value in data set [1] (unopposed estradiol treatment, ovariectomized rats) was “hypertrophy”.

As to `CC(=O)[C@H]1CC[C@H]2[C@@H]3CCC4=CC(=O)CC[C@]4(C)[C@H]3CC[C@]12C` [Progesterone, pregn-4-ene-3,20-dione], the “Concentration of Progesterone (mg/g) for clear solution” value in data set [2] (solvent Absolute Ethanol) amounted to 57 mg/g. For the same compound, the “Concentration of Progesterone (mg/g) for clear solution” value in data set [2] (solvent d-Limonene) amounted to 204.0 mg/g. For the same compound, the uterine weight result in data set [1] (estradiol-treated ovariectomized rats receiving progesterone SC or transdermally, FIGS. 5 and 6) is listed as “Significantly reduced”. Moreover, in data set [1] (setting [3]), the “endometrial gland density compared to unopposed estradiol” value was “significant increase” and the “luminal epithelial cell height compared to unopposed estradiol” value is on record as “significant reduction”. Also, the “estrogen-specific cellular aspects in the uterus and vagina” value in data set [1] (histology, estradiol-treated ovariectomized rats receiving progesterone SC or transdermally) is recorded as “not detected”. Besides, in data set [1] (ovariectomized rats), the “Endometrial Gland Density, LSMean” value was 10.3^b,d cells/mm^2; the “Endometrial Gland Size, LSMean” value is 4390^b μm^2; the “Endometrial Height, LSMean” value is 436^b μm; the “Luminal Epithelial Cell Height, LSMean” value is 31.91^b,d μm. Besides, the “Number of Mitotic Figures, LSMean” value in data set [1] (ovariectomized rats) is 595^b,d.
